Experimental data published in patent publication US20110207154A1, “METHOD FOR DETERMINATION OF MARIN[…] AND COMPOUNDS […] SUCH METHOD” (SCOTT & WHITE HEALTHCARE, priority 2010, published 2011).

Tested on: our antisera (rabbit polyclonal antisera against BSA-MBG conjugate)
Assay: competition ELISA with rabbit polyclonal anti-MBG antisera
Format: binding
Conditions: competition assay
Description: Initially, both BSA and BLG were employed as the carrier protein. In the former case, excess BSA was added to the reaction mixture to inhibit anti-BSA antibodies from binding to the conjugate. When the BLG-marinobufagenin congugate became available, BLG-marinobufagenin was used for antibody detection. This ELISA format was used as the basis for a competitive ELISA for the detection of marinobufagenin in body specimens.
In an alternative approach, rabbits were immunized with the BSA-MBG conjugate for the production of polyclonal antisera. […] The resulting polyclonal sera were assessed for the presence of MBG-specific antibodies by ELISA (FIG. 11). In this particular format, two of the rabbits produced a strong humoral immune response that allowed dilution of the primary (rabbit) antiserum down to 1 in 4*10^6, even when using a relatively insensitive photometric readout. […] This particular assay has now been equipped with a chemifluorescent readout (using commercially available reagents) and has now reached the target sensitivity of less than 10 pg MBG/ml. As expected, rat urine samples can be measured without prior treatment, but rat plasma and/or serum samples require solid phase extraction using a C8 solid phase and acetonitrile in the mobile phase. Upon drying the eluate of obtained from the extraction cartridge by vacuum centrifugation, MBG can be measured in the circulation of the rat.

C[C@]12CC[C@H](O)C[C@H]1CC[C@@H]1[C@@H]2CC[C@]2(C)[C@@H](c3ccc(=O)oc3)C[C@H]3O[C@]132 [RBG, resibufogenin]
cross-reactivity with antisera: only measurable at extremely high doses
